This is an account of results in patent US5670364A, “A83543 compounds and process for production thereof” (priority 1995, dated 1997).

Structures are written as SMILES. Converted amounts (≈) assume the structure as drawn. Some results are limits rather than exact numbers.

The subject of one data set is Aster Leafhopper. Briefly: Mite/Insect Screen, aster leafhopper (ALH). The data set is classed as in vivo. To be noted: Macrosteles fascifrons, 24 hr. As to the method:
(§1) The Formula 2 compounds were tested for miticidal and insecticidal activity in the following mite/insect screen. Each test compound was formulated by dissolving the compound in an acetone-alcohol (1:1) mixture containing 23 g of TOXIMUL R (sulfonate/nonionic emulsifier blend) and 13 g of TOXIMUL S (sulfonate/nonionic emulsifier blend) per liter. These mixtures were then diluted with water to give the indicated concentrations.
(§2) Two-spotted spider mites and cotton aphids were introduced on squash cotyledons and allowed to establish on both leaf surfaces. The leaves were then sprayed with 5 ml of test solutions using a DeVilbiss atomizing sprayer at 10 psi. Both surfaces of the leaves were covered until run off and then allowed to dry for one hour. After standard exposure periods percent mortality was evaluated. Additional insects were evaluated using similar formulations and evaluation procedures.

For another data set, the system named is Beet Armyworm. In words: Mite/Insect Screen, beet armyworm (BAW). To be noted: Spodoptera exigua, 144 h, 6 day. Type of data set: in vivo, Spodoptera exiqua. As for the experimental part:
as §1, §2

In the next data set the test system is Cotton Aphid. In words: Mite/Insect Screen, cotton aphid (CA). The data set is classed as in vivo, Aphis gossypii Glover. To be noted: Aphis gossypii, 4-5 day. As for the experimental part: as §1, §2
For the next data set, the system named is German Cockroach. In words: Mite/Insect Screen, German cockroach (GECR). To be noted: Blattella germanica. Type of data set: in vivo. As for the experimental part: as §1, §2
A further data set deals with Rootknot Nematode. In words: Mite/Insect Screen, rootknot nematode (NEM). The data set is classed as in vivo, Meiiiodyne spp. Particulars: 264 h, 11 day. As to the method: as §1, §2
In the next data set the test system is Southern Corn Rootworm. In words: Mite/Insect Screen, southern corn rootworm (SCRW). To be noted: 264 h, 11 day. Type of data set: in vivo, Diabrotica undecimpunctata howardi. As to the method: as §1, §2
Another data set relates to Tobacco Budworm. In words: Mite/Insect Screen, tobacco budworm (TBW). The data set is classed as in vivo. Particulars: Heliothis virescens, 144 h, 6 day; for inhibition at 50 ppm: 50 ppm (rate in parenthesis). As to the method: as §1, §2
Another data set deals with Two-spotted Spider Mite. Briefly: Mite/Insect Screen, two-spotted spider mite (TSSM). The data set is classed as in vivo. Particulars: Tetranychus urticae, 4-5 day; for inhibition at 50 ppm: 50 ppm (rate in parenthesis). As to the method: as §1, §2
The next data set deals with neonate tobacco budworm. Briefly: LD50 against neonate tobacco budworm, petri dish assay. Type of data set: in vivo. To be noted: Heliothis virescens; mean of two tests; mortality evaluated at 24 and 48 hours. As to the method: Formula 2 compounds were evaluated in the following assay to determine the LD50 against neonate tobacco budworm (Heliothis virescens). A petri dish (100 mm×20 mm) is inverted and the lid lined with a #1 qualitative filter paper. Ten neonate larvae are placed in each dish and a 1 ml test solution is pipetted onto the insects. The petri dish bottom is then placed on the lid to contain the larvae. At 1 hour after treatment, a small piece of Heliothis diet (modified slurry, Southland Products, Lake Village, AR) is added to each dish. The mortality is evaluated at 24 and 48 hours. The tests were run in triplicate.

A further data set relates to blowfly larvae. Briefly: in vitro activity against blowfly larvae. The data set is classed as in vivo. To be noted: 48 hours. As to the method:
(§3) The Formula 2 compounds are also active against members of the insect order Diptera. Tables XI and XII summarize the in vitro studies of the Formula 2 compounds against blowfly larvae and adult stable fly at 48 hours.

Another data set concerns adult stable fly. In words: in vitro activity against adult stable fly. The data set is classed as in vivo. To be noted: Stomoxys calcitrans, 48 hours. As for the experimental part: as §3
Data set [1] relates to norepinephrine N-methyltransferase. Particulars: cited from earlier work.
Data set [2] deals with histamine N-methyltransferase. Particulars: cited from earlier work.
The subject of data set [3] is catechol O-methyltransferase. Particulars: cited from earlier work.
Data set [4] has as its system S-adenosyl-methionine-dependent O-methyltransferase. Particulars: avermectin-producing strains; cited from earlier work.
Data set [5] has as its system macrocin O-methyltransferase. Particulars: cited from earlier work.

For the molecule `CCC1CCCC(OC2CCC(N(C)C)C(C)O2)C(C)C(=O)C2=CC3C(C=CC4CC(OC5OC(C)C(O)C(OC)C5OC)CC43)C2CC(=O)O1` (centres unmarked) [A83543K], the inhibition at 200 ppm with Aster Leafhopper is 100%; in the data set on Beet Armyworm it was 100%; in the data set with Cotton Aphid, 0%; in the data set on German Cockroach (168 h, 7 day) it was 0%; with German Cockroach (504 h, 21 day) it was 0%; in the data set with Rootknot Nematode, 0%. The inhibition at 200 ppm came out at 0% in the data set with Southern Corn Rootworm, 100% with Tobacco Budworm (200 ppm) and 90% in the data set with Two-spotted Spider Mite (200 ppm). Moreover, the inhibition at 400 ppm in the data set with Aster Leafhopper worked out at 100%; in the data set on Beet Armyworm it was 100%; in the data set on Cotton Aphid, 0%; in the data set with German Cockroach (168 h, 7 day) it was 0%; in the data set with German Cockroach (504 h, 21 day), 80%; with Rootknot Nematode, 0%. In addition, the inhibition at 400 ppm with Southern Corn Rootworm, in the data set with Tobacco Budworm and with Two-spotted Spider Mite was 100% throughout. In the data set on neonate tobacco budworm, this molecule returned an LC50 of 3.5 µg/mL (≈ 4.88 µM). In the data set with blowfly larvae (2.5 ppm), the “% mortality” value is 40%. In the data set on adult stable fly (2.5 ppm), the mortality at 2.5 ppm came to 90%.

`CCC1CCCC(OC2CCC(N(C)C)C(C)O2)C(C)C(=O)C2=CC3C(C=CC4CC(OC5OC(C)C(O)C(O)C5OC)CC43)C2CC(=O)O1` (centres unmarked) [A83543P]: the inhibition at 200 ppm in the data set with Aster Leafhopper stood at 0%; in the data set with Beet Armyworm it was 100%; in the data set with Cotton Aphid it was 0%; with German Cockroach (168 h, 7 day), 0%; with German Cockroach (504 h, 21 day) it was 20%; in the data set on Rootknot Nematode, 0%. Moreover, in the data set with Southern Corn Rootworm, 200 ppm produced 0% inhibition. The inhibition at 400 ppm in the data set on Aster Leafhopper amounted to 0%; in the data set on Beet Armyworm it was 100%; in the data set on Cotton Aphid, 0%; in the data set on German Cockroach (168 h, 7 day) it was 0%; in the data set on German Cockroach (504 h, 21 day), 0%; in the data set on Rootknot Nematode, 0%. Also, the inhibition at 400 ppm in the data set with Southern Corn Rootworm is 0%; with Tobacco Budworm it was 100%; in the data set with Two-spotted Spider Mite, 100%. Moreover, the values for the inhibition at 50 ppm with Tobacco Budworm and in the data set with Two-spotted Spider Mite were 0% and 100%, respectively. In the data set on neonate tobacco budworm, the LC50 is greater than 64 µg/mL. Also, the “% mortality” value with blowfly larvae (10.0 ppm) turned out to be 10%. Besides, the mortality at 10 ppm with adult stable fly amounted to 90%.

As for `CCC1CCCC(OC2CCC(N(C)C)C(C)O2)C(C)C(=O)C2=CC3C(C=C(C)C4CC(OC5OC(C)C(O)C(O)C5OC)CC43)C2CC(=O)O1` (centres unmarked) [A83543W], the inhibition at 200 ppm with Aster Leafhopper was 0%; in the data set on Beet Armyworm it was 0%; in the data set with Cotton Aphid, 0%; with German Cockroach (168 h, 7 day), 0%; with German Cockroach (504 h, 21 day), 20%; in the data set with Rootknot Nematode, 0%. Moreover, at 200 ppm the inhibition in the data set on Southern Corn Rootworm was 0%. In addition, the inhibition at 400 ppm with Aster Leafhopper stood at 0%; in the data set on Beet Armyworm it was 60%; with Cotton Aphid, 0%; in the data set with German Cockroach (168 h, 7 day) it was 0%; in the data set with German Cockroach (504 h, 21 day), 0%; in the data set with Rootknot Nematode it was 0%. Moreover, the inhibition at 400 ppm with Southern Corn Rootworm came to 0%; in the data set on Tobacco Budworm, 100%; in the data set with Two-spotted Spider Mite, 80%. Further, the inhibition at 50 ppm in the data set on Tobacco Budworm and with Two-spotted Spider Mite was 0% throughout. Further, the LC50 in the data set on neonate tobacco budworm was greater than 64 µg/mL. Besides, the “% mortality” value in the data set on blowfly larvae (10.0 ppm) is 0%. In the data set on adult stable fly, the mortality at 10 ppm came out at 40%.

Regarding `Nc1ncnc2c1ncn2[C@@H]1O[C@H](C[C@@H](N)CC[C@H](N)C(=O)O)[C@@H](O)[C@H]1O` [Sinefungin], the “inhibition of norepinephrine N-methyltransferase” value in data set [1] is reported as “effective in inhibiting”. The “inhibition of histamine N-methyltransferase” value in data set [2] is “effective in inhibiting”. Besides, the “inhibition of catechol O-methyltransferase” value in [3] is given as “effective in inhibiting”. In addition, the “inhibition of O-methyltransferase in S. avermitilis” value in data set [4] is “effective in inhibiting”. Also, in [5], the “inhibition of macrocin O-methyltransferase” value is “effective in inhibiting”.
